Laboratory results: publication PMC6326728, “eIF2B activator prevents neurological defects caused by a chronic integrated stress response” (eLife, 2019)

What was measured:
Assay in all cases: biochemical
Parameters in all cases: CEREP panel radioligand binding displacement, % inhibition of control specific binding by 10 uM 2BAct
5-HT transporter (h) = target: T1, 5-HT transporter (h) (Homo sapiens, UniProt P31645); conditions: Type=Antagonist radioligand; read-out: % inhibition of Control specific binding
T1 construct: gene SLC6A4
Method: (§1) Supplementary file elife-42940-supp1.xlsx: Supplementary file 1. (A) Binding of 2BAct at 10 μM to the CEREP panel of receptors/enzymes/ion channels. Compound binding was calculated as a % inhibition of the binding of a radioactively labeled ligand specific for each target. Results showing inhibition or stimulation higher than 50% are considered to represent significant effects of the test compound. (B) Pharmacokinetic data from 2BAct dosing in mice. (C) GO Biological Processes identified by enrichment analysis of RNA-seq data. (D) List of genes used for enrichment analysis of scRNA-seq data.

5-HT3 (h) = target: T2, 5-HT3 (h) (Homo sapiens, UniProt P46098); conditions: Type=Antagonist radioligand; read-out: % inhibition of Control specific binding
T2 construct: gene HTR3A
T2 sequence (P46098 whole entry): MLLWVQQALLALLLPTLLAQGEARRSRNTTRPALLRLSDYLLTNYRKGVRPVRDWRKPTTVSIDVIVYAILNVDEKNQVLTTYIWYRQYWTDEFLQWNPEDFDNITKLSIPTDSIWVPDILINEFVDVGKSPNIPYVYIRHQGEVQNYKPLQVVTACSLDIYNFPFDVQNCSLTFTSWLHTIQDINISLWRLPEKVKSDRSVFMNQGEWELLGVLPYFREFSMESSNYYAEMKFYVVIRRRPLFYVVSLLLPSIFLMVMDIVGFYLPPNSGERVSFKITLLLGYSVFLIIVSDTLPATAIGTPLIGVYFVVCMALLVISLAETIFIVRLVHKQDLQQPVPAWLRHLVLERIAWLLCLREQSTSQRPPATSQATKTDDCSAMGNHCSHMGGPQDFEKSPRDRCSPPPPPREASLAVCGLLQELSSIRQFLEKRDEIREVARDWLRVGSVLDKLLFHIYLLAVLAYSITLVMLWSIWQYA
Method: as §1

A1 (h) = target: T3, A1 (h) (Homo sapiens, UniProt P30542); conditions: Type=Antagonist radioligand; read-out: % inhibition of Control specific binding
T3 construct: gene ADORA1
T3 sequence (P30542 whole entry): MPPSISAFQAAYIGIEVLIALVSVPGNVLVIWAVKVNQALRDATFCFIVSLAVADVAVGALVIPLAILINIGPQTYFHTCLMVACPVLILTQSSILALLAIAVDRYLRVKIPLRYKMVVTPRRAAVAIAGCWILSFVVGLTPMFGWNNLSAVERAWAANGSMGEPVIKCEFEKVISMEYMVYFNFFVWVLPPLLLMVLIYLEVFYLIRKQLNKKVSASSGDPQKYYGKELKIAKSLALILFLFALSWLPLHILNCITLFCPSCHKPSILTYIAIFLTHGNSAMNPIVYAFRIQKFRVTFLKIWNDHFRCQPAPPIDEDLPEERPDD
Method: as §1

A2b (h) = target: T4, A2b (h) (Homo sapiens, UniProt P29275); conditions: Type=Antagonist radioligand; read-out: % inhibition of Control specific binding
T4 construct: gene ADORA2B
Method: as §1

A3 (h) = target: T5, A3 (h) (Homo sapiens, UniProt P0DMS8); conditions: Type=Agonist radioligand; read-out: % inhibition of Control specific binding
T5 construct: gene ADORA3
T5 sequence (P0DMS8 whole entry): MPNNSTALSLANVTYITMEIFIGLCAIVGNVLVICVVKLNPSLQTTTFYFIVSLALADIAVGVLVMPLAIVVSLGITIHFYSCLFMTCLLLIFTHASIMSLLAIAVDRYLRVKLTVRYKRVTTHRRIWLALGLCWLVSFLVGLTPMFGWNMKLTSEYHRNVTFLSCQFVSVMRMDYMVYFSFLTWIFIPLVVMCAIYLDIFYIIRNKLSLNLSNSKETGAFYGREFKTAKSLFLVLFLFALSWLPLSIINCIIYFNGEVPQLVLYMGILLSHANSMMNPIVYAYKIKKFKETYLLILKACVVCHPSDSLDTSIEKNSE
Method: as §1

CB1 (h) = target: T6, CB1 (h) (Homo sapiens, UniProt P21554); conditions: Type=Agonist radioligand; read-out: % inhibition of Control specific binding
T6 construct: gene CNR1
T6 sequence (P21554 whole entry): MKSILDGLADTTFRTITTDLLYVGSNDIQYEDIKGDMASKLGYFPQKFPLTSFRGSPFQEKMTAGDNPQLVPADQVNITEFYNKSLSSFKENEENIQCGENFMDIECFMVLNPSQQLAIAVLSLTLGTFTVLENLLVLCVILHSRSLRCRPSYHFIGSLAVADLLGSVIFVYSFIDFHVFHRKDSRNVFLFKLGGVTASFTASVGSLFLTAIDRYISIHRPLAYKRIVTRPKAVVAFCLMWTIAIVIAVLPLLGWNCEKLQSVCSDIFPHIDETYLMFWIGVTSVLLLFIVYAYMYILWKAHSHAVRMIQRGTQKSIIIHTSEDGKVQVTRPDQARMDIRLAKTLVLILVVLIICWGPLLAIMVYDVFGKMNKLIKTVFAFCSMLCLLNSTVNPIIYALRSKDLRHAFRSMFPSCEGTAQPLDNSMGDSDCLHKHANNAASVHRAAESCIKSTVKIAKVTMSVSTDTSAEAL
Method: as §1

CB2 (h) = target: T7, CB2 (h) (Homo sapiens, UniProt P34972); conditions: Type=Agonist radioligand; read-out: % inhibition of Control specific binding
T7 construct: gene CNR2
T7 sequence (P34972 whole entry): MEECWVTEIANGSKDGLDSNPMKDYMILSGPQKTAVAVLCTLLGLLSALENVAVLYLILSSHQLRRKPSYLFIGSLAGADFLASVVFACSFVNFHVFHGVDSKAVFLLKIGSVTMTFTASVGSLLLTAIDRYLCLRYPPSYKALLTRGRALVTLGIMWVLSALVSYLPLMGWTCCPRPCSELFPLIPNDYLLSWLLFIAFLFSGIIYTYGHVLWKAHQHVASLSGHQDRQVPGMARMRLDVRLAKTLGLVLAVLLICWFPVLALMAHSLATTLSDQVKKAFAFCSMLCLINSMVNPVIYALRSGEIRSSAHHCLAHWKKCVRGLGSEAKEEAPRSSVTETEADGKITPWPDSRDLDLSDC
Method: as §1

D2S (h) = target: T8, D2S (h) (Homo sapiens, UniProt P14416); conditions: Type=Antagonist radioligand; read-out: % inhibition of Control specific binding
T8 construct: gene DRD2; short isoform (D2S)
Method: as §1

EP2 (h) = target: T9, EP2 (h) (Homo sapiens, UniProt P43116); conditions: Type=Agonist radioligand; read-out: % inhibition of Control specific binding
T9 construct: gene PTGER2
T9 sequence (P43116 whole entry): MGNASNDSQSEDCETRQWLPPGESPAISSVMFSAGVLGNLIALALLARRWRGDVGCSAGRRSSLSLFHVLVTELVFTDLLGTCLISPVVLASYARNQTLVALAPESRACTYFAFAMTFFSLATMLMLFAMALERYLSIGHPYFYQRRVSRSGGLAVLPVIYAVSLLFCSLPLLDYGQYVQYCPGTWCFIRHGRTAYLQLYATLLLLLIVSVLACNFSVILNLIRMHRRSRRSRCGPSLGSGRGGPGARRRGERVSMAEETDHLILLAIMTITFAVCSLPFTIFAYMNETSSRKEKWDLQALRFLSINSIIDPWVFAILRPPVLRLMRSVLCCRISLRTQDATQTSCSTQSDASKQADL
Method: as §1

ET-B (h) = target: T10, ET-B (h) (Homo sapiens, UniProt P24530); conditions: Type=Agonist radioligand; read-out: % inhibition of Control specific binding
T10 construct: gene EDNRB
Method: as §1

H1 (h) = target: T11, H1 (h) (Homo sapiens, UniProt P35367); conditions: Type=Antagonist radioligand; read-out: % inhibition of Control specific binding
T11 construct: gene HRH1
Method: as §1

H2 (h) = target: T12, H2 (h) (Homo sapiens, UniProt P25021); conditions: Type=Antagonist radioligand; read-out: % inhibition of Control specific binding
T12 construct: gene HRH2
Method: as §1

M5 (h) = target: T13, M5 (h) (Homo sapiens, UniProt P08912); conditions: Type=Antagonist radioligand; read-out: % inhibition of Control specific binding
T13 construct: gene CHRM5
T13 sequence (P08912 whole entry): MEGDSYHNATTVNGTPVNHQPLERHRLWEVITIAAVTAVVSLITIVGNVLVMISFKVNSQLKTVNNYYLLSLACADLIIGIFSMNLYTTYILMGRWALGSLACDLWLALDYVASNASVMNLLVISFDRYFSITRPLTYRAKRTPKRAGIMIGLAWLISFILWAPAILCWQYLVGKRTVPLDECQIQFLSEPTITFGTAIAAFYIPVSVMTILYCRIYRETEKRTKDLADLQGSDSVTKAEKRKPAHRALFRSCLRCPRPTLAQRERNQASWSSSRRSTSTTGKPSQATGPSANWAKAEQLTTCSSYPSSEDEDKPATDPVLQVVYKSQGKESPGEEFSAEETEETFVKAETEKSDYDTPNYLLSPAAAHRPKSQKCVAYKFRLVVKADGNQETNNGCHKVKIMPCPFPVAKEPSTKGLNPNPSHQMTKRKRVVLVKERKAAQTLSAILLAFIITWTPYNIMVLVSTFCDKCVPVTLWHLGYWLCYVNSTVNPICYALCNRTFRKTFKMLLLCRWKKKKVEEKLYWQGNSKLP
Method: as §1

UT (h) = target: T14, UT (h) (Homo sapiens, UniProt Q9UKP6); conditions: Type=Agonist radioligand; read-out: % inhibition of Control specific binding
T14 construct: gene UTS2R
T14 sequence (Q9UKP6 whole entry): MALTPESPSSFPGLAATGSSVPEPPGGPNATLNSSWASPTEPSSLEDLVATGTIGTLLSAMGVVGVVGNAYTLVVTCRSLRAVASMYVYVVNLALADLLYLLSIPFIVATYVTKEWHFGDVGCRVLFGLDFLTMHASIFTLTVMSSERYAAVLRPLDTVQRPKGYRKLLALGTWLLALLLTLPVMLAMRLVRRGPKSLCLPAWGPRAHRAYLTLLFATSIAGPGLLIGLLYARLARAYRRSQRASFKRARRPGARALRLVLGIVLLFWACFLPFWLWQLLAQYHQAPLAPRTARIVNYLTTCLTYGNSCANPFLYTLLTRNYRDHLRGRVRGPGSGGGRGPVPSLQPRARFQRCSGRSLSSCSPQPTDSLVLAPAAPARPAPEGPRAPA
Method: as §1

a1B (h) = target: T15, a1B (h) (Homo sapiens, UniProt P35368); conditions: Type=Antagonist radioligand; read-out: % inhibition of Control specific binding
T15 construct: gene ADRA1B
T15 sequence (P35368 whole entry): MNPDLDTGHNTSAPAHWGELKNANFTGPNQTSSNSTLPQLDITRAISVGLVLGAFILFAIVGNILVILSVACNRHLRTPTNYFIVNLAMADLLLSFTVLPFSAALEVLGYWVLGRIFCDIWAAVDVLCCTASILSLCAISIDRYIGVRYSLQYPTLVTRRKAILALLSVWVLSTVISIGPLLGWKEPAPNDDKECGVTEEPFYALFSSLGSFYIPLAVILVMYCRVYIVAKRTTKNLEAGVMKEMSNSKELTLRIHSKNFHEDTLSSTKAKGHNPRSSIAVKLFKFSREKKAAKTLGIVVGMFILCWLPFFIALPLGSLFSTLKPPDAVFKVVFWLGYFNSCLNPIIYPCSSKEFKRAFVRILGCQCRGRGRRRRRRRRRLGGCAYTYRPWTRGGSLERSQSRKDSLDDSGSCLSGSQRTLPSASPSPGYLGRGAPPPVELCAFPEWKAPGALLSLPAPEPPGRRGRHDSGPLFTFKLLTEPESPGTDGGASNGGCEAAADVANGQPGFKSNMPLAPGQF
Method: as §1

a2A (h) = target: T16, a2A (h) (Homo sapiens, UniProt P08913); conditions: Type=Antagonist radioligand; read-out: % inhibition of Control specific binding
T16 construct: gene ADRA2A
T16 sequence (P08913 whole entry): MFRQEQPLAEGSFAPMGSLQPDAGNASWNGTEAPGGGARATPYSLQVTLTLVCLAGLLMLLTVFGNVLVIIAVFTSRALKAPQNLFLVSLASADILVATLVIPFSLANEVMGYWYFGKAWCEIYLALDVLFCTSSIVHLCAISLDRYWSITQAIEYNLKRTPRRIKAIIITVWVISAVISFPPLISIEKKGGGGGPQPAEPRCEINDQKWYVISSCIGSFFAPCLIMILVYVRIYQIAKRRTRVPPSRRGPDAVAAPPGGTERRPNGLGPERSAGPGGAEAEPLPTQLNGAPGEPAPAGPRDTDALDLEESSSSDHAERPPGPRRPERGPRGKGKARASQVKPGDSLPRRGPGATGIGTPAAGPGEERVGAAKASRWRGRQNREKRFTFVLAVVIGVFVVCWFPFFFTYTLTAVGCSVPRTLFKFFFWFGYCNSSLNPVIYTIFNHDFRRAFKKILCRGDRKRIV
Method: as §1

d (DOP) (h) = target: T17, d (DOP) (h) (Homo sapiens, UniProt P41143); conditions: Type=Agonist radioligand; read-out: % inhibition of Control specific binding
T17 construct: gene OPRD1
Method: as §1

motilin (h) = target: T18, motilin (h) (Homo sapiens, UniProt O43193); conditions: Type=Agonist radioligand; read-out: % inhibition of Control specific binding
T18 construct: gene MLNR
T18 sequence (O43193 whole entry): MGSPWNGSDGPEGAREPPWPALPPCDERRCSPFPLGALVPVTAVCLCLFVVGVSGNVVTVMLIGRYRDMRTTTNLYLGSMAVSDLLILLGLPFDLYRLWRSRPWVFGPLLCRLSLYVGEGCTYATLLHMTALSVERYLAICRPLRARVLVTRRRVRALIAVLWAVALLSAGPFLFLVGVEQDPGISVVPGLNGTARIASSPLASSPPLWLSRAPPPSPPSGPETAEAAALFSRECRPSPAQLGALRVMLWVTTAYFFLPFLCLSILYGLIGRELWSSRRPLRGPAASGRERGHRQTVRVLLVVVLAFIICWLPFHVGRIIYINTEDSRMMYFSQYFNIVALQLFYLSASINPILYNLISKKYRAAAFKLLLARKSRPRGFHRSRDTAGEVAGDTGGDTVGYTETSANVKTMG
Method: as §1

Compound: O=C(COc1ccc(Cl)c(F)c1)NC12CC(NC(=O)c3cnc(C(F)F)cn3)(C1)C2 [2BAct]
- inhibition at 10 µM (5-HT transporter (h)): 7.9%
- inhibition at 10 µM (5-HT3 (h)): 9.2%
- inhibition at 10 µM (A1 (h)): 2.1%
- inhibition at 10 µM (A2b (h)): 50.1%
- inhibition at 10 µM (A3 (h)): 20.6%
- inhibition at 10 µM (CB1 (h)): 8.3%
- inhibition at 10 µM (CB2 (h)): 2%
- inhibition at 10 µM (D2S (h)): 1.3%
- inhibition at 10 µM (EP2 (h)): -4%
- inhibition at 10 µM (ET-B (h)): 6%
- inhibition at 10 µM (H1 (h)): 0.2%
- inhibition at 10 µM (H2 (h)): -17.4%
- inhibition at 10 µM (M5 (h)): 11.8%
- inhibition at 10 µM (UT (h)): 5.8%
- inhibition at 10 µM (a1B (h)): -14.2%
- inhibition at 10 µM (a2A (h)): -5.5%
- inhibition at 10 µM (d (DOP) (h)): 2.9%
- inhibition at 10 µM (motilin (h)): -10.8%
